Assay results published in patent US20200165194A1, “ADDITIVE COMPOSITION FOR CULTURE MEDIUM, ADDITIVE COMPOUND FOR CULTURE MEDIUM, AND METHOD FOR CULTURE OF CELLS OR TISSUE USING SAME” (NISSAN CHEMICAL CORPORATION, priority 2017, published 2020).
Read-outs that look alike come from different tables or passages of the source.

How the values were obtained:
Assay type in all cases: cell-based
[1] = test system: Human umbilical vein endothelial cells; experiment: Vascular endothelial cell, 3D culture, ATP assay (Experimental Example 14); conditions: for viability at 5 µM / viability at 10 µM: Homo sapiens, HUVEC, 96 h, 4 days, no-addition = 100%, read-out: relative value of RLU (number of viable cells); for proliferation activity (in words): human umbilical vein endothelial cells under three-dimensional conditions
Procedure: Human umbilical vein endothelial cells (manufactured by PromoCell) were precultured in Endothelial Cell proliferation Medium (manufactured by PromoCell) medium (single layer culture). The above-mentioned cells in the logarithmic growth phase were washed with PBS, DetachKit (manufactured by PromoCell) was added, and adherent cells were detached by incubating at 37° C. for 3 min. The medium was added and the mixture was centrifuged and resuspended in the same medium.
The aforementioned cells were suspended in respective deacylated gellan gum-containing or not containing media (deacylated gellan gum concentration was 0.015 w/v %), and seeded in a 96 well low attachment U-bottom plate (manufactured by Corning, #4520, deacylated gellan gum-free medium), or a low attachment flat bottom plate (manufactured by Corning, #3474, deacylated gellan gum-containing medium) at a cell concentration of 700-2000 cells/90 μL/well (all 3D culture). […] The amount of each compound solution to be added was 10 μL/well. As a control, a DMSO solution dissolved in a medium was added (DMSO final concentration 0.1%).

plural animal cell lines = experiment: Animal cell lines, summary over the cell lines (Experimental Example 15); conditions: animal cell lines under three-dimensional conditions
Excerpt: (§1) Various animal cell lines were precultured (single layer culture) as follows in respective media. Chinese hamster ovary-derived cell line CHO-K1 (manufactured by DS PHARMA BIO MEDICAL, 10% fetal bovine serum (FBS, manufactured by Corning)-containing Ham's F-12 medium (manufactured by Fujifilm Wako Pure Chemical Corporation)), Cercopithecus aethiops kidney epithelium-derived cell line Vero (purchased from JCRB cell bank, 5% FBS-containing Medium 199 medium (manufactured by Life Technologies)). The above-mentioned cells in the logarithmic growth phase were washed with PBS, a 0.25 w/v % trypsin-1 mmol/L EDTA (ethylenediaminetetraacetic acid) solution (manufactured by Fujifilm Wako Pure Chemical Corporation) was added, and adherent cells were detached by incubating at 37° C. for 3 min. Each medium was added and the mixture was centrifuged and resuspended in the same medium.
(§2) The aforementioned various animal cells were suspended in respective deacylated gellan gum-containing or not containing media (deacylated gellan gum concentration was 0.02 w/v % in Ham's F-12 medium, 0.015 w/v % in Medium 199 medium), and seeded in a 96 well low attachment U-bottom plate (manufactured by Corning, #4520, deacylated gellan gum-free medium), or a low attachment flat bottom plate (manufactured by Corning, #3474, deacylated gellan gum-containing medium) at a cell concentration of 700-2000 cells/90 μL/well (all 3D culture). […] The amount of each compound solution to be added was […]. As a control, a DMSO solution dissolved in a medium was added (DMSO final concentration 0.1%). […] When compared with the compound non-addition (control), one showing a value of not more than 119% as -, one showing a value of not less than 120% as ◯, and one showing a value of not less than 150% as ⊚ are shown in the twenty-third table and the twenty-fourth table.

[2] = test system: Mouse embryonic fibroblast C3H10T1/2; experiment: Fibroblast strain C3H10T1/2, 3D culture, ATP assay (Experimental Example 11); conditions: for proliferation activity (in words): fibroblast under three-dimensional conditions
Procedure: Mouse embryonic fibroblast C3H10T1/2 (manufactured by DS PHARMA BIO MEDICAL) was cultured in a BME medium (manufactured by Thermo Fisher Scientific) containing 10 (v/v) % FBS (manufactured by Corning) and the L-glutamine-penicillin-streptomycin stabilizing solution (manufactured by Sigma-Aldrich). The above-mentioned cells in the logarithmic growth phase were washed with PBS, a 0.25 w/v % trypsin-1 mmol/L EDTA (ethylenediaminetetraacetic acid) solution (manufactured by Wako Pure Chemical Industries, Ltd.) was added, and the cells were detached by incubating at 37° C. for 3 min. Each medium was added, the mixture was centrifuged, and the supernatant was removed.
The aforementioned various cells were suspended in respective deacylated gellan gum-containing or not containing media (deacylated gellan gum concentration was 0.015 w/v %), and seeded in a 96 well low attachment U-bottom plate (manufactured by Corning, #4520, deacylated gellan gum-free medium) at a cell concentration of 700-2000 cells/90 μL/well (3D culture). […] The amount of each compound solution to be added was 10 μL/well. As a control, a DMSO solution dissolved in a medium was added (DMSO final concentration 0.1%). […] When compared with the compound no-addition (control), one showing a value of not more than 119% as -, one showing a value of not less than 120% as ◯, and one showing a value of not less than 150% as ⊚ are shown in the eighteenth table. Unperformed test is left blank.

[3] = test system: Chinese hamster ovary-derived cell line CHO-K1; experiment: Animal cell lines, 3D culture, ATP assay (Experimental Example 15); conditions: CHO-K1, 4 days; for viability at 5 µM / viability at 10 µM: Cricetulus griseus, CHO-K1, 96 h, read-out: number of viable cells (RLU), relative value to control (100%)
Excerpt: as §1, §2

[4] = test system: Cercopithecus aethiops kidney epithelium-derived cell line Vero; experiment: as above; conditions: 4 days
Excerpt: as §1, §2

hiPS cell line 253G1 = experiment: Human pluripotent stem cell (hiPS cell), EZSPHERE plate, ATP assay (Experimental Example 13); conditions: for relative value (%): hiPS 253G1, EZSPHERE plate, 5 μM, 3 days, RLU of DMSO addition = 100%; for proliferation activity (in words): human pluripotent stem cells under three-dimensional conditions
Procedure: hiPS cell line 253G1 (purchased from RIKEN) was cultured on a dish coated with vitronectin VTN-N (manufactured by Thermo Fisher Scientific) using mTeSR1 (registered trade mark) medium (manufactured by STEMCELL Technologies). The above-mentioned cells in the proliferation phase were washed with PBS (manufactured by Fujifilm Corporation Wako Pure Chemical Industries, Ltd.), TrypLE Select (registered trade mark) (manufactured by Thermo Fisher Scientific) was added and the mixture was incubated at 37° C. for 3 min to remove the detaching solution. The medium was added and the cells were detached by pipetting. Thereafter, the supernatant was removed by centrifugation.
The aforementioned cells were suspended in a medium containing 10 μM Y-27632 (manufactured by Fujifilm Corporation Wako Pure Chemical Industries, Ltd.) and seeded in a 96-well EZSPHERE plate (manufactured by AGC TECHNO GLASS CO., LTD., #4860-900) at a cell concentration of 10000 cells/200 μL/well. […] The amount of each compound solution to be added was 2 μL/well. As a control, a DMSO solution dissolved in a medium was added (DMSO final concentration 0.05%). The medium was exchanged by half the volume every day, and each compound solution was also added to make the compound concentration constant.

[5] = low attachment flat bottom plate (deacylated gellan gum-containing medium)
[6] = Mus musculus, C3H 10T1/2, 96 h, C3H10T1/2, low attachment U-bottom plate, 1 μM, 4 days, read-out: number of viable cells (RLU), relative value to control (100%)
[7] = low attachment U-bottom plate, 5 μM
[8] = low attachment U-bottom plate, 10 μM
[9] = low attachment flat bottom plate (deacylated gellan gum-containing medium), 5 μM
[10] = low attachment flat bottom plate (deacylated gellan gum-containing medium), 10 μM

SMILES | proliferation activity (in words) [1] | proliferation activity (in words) (plural animal cell lines) | viability at 1 µM [2, 6] [%] | proliferation activity (in words) [2] | viability at 5 µM [3, 7] [%] | viability at 10 µM [3, 8] [%] | viability at 5 µM [3, 9] [%] | viability at 10 µM [3, 10] [%] | number of viable cells (RLU), relative value to control (100%) [4, 8] | number of viable cells (RLU), relative value to control (100%) [3, 9] | number of viable cells (RLU), relative value to control (100%) [4, 7] | number of viable cells (RLU), relative value to control (100%) [4, 9] | number of viable cells (RLU), relative value to control (100%) [4, 10] | relative value (%) (hiPS cell line 253G1) | proliferation activity (in words) (hiPS cell line 253G1) | further results
CC/C(=N\NC(=O)NCc1ccccc1)c1ccc(O)c(C)c1O [k-1:I-1] | promoted proliferation activity in human umbilical vein endothelial cells | promoted proliferation activity in plural animal cell lines | > 120 | promoted proliferation activity in fibroblast | < 119 | < 119 | < 119 | < 119 | ⊙ |  |  |  |  |  |  | viability at 5 µM ([1]; low attachment U-bottom plate): 327%; viability at 10 µM ([1]; low attachment U-bottom plate): 304%; viability at 5 µM [1, 5]: 209%; viability at 10 µM [1, 5]: 268%; viability at 5 µM ([2]; Mus musculus, C3H 10T1/2, 96 h, C3H10T1/2, low attachment U-bottom plate, 5 μM, 4 days, read-out: number of viable cells (RLU), relative value to control (100%)): > 120%; viability at 5 µM ([4]; Chlorocebus sabaeus, 96 h, low attachment U-bottom plate, 5 μM, read-out: number of viable cells (RLU), relative value to control (100%)): > 120%; viability at 5 µM ([4]; Chlorocebus sabaeus, 96 h, low attachment flat bottom plate (deacylated gellan gum-containing medium), 5 μM, read-out: number of viable cells (RLU), relative value to control (100%)): < 119%; viability at 10 µM ([4]; Chlorocebus sabaeus, 96 h, low attachment flat bottom plate (deacylated gellan gum-containing medium), 10 μM, read-out: number of viable cells (RLU), relative value to control (100%)): < 119%
CC/C(=N\NC(=O)CNc1cccc(O)c1)c1ccc(O)c(C)c1O [k-1:D-1] | promoted proliferation activity in human umbilical vein endothelial cells | promoted proliferation activity in plural animal cell lines | > 120 | promoted proliferation activity in fibroblast | < 119 | < 119 |  |  | ⊙ | ⊙ | ⊙ | ⊙ | ⊙ | 207 | promoted proliferation activity in human pluripotent stem cells | number of viable cells (RLU), relative value to control (100%) [3, 10]: ⊙
CC/C(=N\NC(=O)C(C)Nc1ccccc1)c1ccc(O)c(C)c1O (stereo not shown) [k-1:B-1] | promoted proliferation activity in human umbilical vein endothelial cells | promoted proliferation activity in plural animal cell lines |  | promoted proliferation activity in fibroblast | < 119 | < 119 | 120 to 150 | < 119 | ⊙ |  | ⊙ | ⊙ | ⊙ | 193 | promoted proliferation activity in human pluripotent stem cells | number of viable cells (RLU), relative value to control (100%) ([2]; C3H10T1/2, low attachment U-bottom plate, 1 μM, 4 days): ⊙; number of viable cells (RLU), relative value to control (100%) ([2]; C3H10T1/2, low attachment U-bottom plate, 5 μM, 4 days): ⊙
CCC(=NNC(=O)C(CC)Nc1ccccc1)c1ccc(O)c(C)c1O (stereo not shown) [k-1:H-7] | promoted proliferation activity in human umbilical vein endothelial cells | promoted proliferation activity in plural animal cell lines |  |  |  |  |  |  | ⊙ | ◯ (one showing a value of not less than 120% as ◯) | ⊙ | ⊙ | ⊙ | 194 | promoted proliferation activity in human pluripotent stem cells | 
